Experimental findings from patent US12709760B2, “KIR 7.1 gene therapy vectors and methods of using the same” (WISCONSIN ALUMNI RESEARCH FOUNDATION, priority 2018, dated 2026) are described below.

Assay [1] has as its system Kir7.1 Trp53Ter protein in CHO-K1 cells. Put plainly: Immunoprecipitation / Western blot of GFP-fused Kir7.1 Trp53Ter protein after read-through. The following applies: Kir7.1-GFP fusion W53X, NB84-treated cells, anti-GFP. Format: cell-based. Background: A western blot detects proteins with antibodies after separation by electrophoresis.
Assay [2] deals with Kir7.1 channel in LCA16 iPSC-RPE cells. Put plainly: Whole-cell patch clamp of LCA16 patient-derived iPSC-RPE cells. Format: cell-based, human. Here is the method: Electrophysiology. Standard whole cell patch clamp on single cells were performed as described^6 Briefly, the tight monolayer of hiPSC-RPE grown on a 6.5 mm transwell was dissociated into a single cell suspension as follows: the medium in which cells were maintained was completely removed and the cells were washed twice with 0NaCMF solution (135 mM NMDG-Cl, 5 mM KCl, 10 mM HEPES, 10 mM Glucose, 2 mM EDTA-KOH and adjusted to pH 7.4 with NMDG free base). The cells were then incubated with 0NaCMF containing papain (2.5 μl/ml), cysteine (0.3 mg/ml), glutathione (0.25 mg/ml) and taurine (0.05 mg/ml) for 45 mins at 37° C. The cells were rinsed with 0NaCMF solution to remove enzymes, resuspended in HEPES-Ringer's (HR) solution [NaCl (135 mM), KCl (5 mM), CaCl2) (1.8 mM), MgCl2 (1 mM), HEPES (10 mM), D-glucose (10 mM), pH 7.4±0.1 with NaOH, prepared in ddH2O], and kept on ice for up to 8 hrs until used for electrophysiological recording.
Single hiPSC-RPE cells with distinct apical processes were chosen for conventional patch clamping. Patch pipettes with a resistance of […] were fabricated from borosilicate capillaries using a pipet puller (P-1000®, Sutter instruments). The glass electrode was then fire polished using a microforge (MF-830®, Narshige). Data acquisition and the holding potential parameters were controlled using the Clampex® software (Axon instruments). Current recorded from the successful patch was amplified using Axopatch 200-B® (Axon Instruments) and filtered at 2 KHz. The signal was digitized using digidata 1400A® (Axon instruments) and analyzed using Clampfit® (Axon Instruments). During patch clamping, HR solution was continuously perfused as an external solution. The patch pipette was filled with solution containing 30 mM KCl, 83 mM K-gluconate, 5.5 mM EGTA-KOH, 0.05 mM CaCl2), 4 mM MgCl2, 10 mM HEPES, pH adjusted to 7.2 with KOH and filtered using the 0.2 μm filter.
Background: The patch-clamp technique gives a direct electrical read-out from membranes.

[3] abbreviates: LCA16 hiPSC-RPE subgroup, 100 or 500 μM NB84.

“Also recorded” adds a separate entry of the source.

Regarding `C[C@@H](O)C1O[C@H](O[C@@H]2C(N)C[C@@H](NC(=O)[C@@H](O)CCN)[C@@H](O)C2O[C@@H]2O[C@H](CN)[C@H](O)C2O)[C@@H](N)C(O)[C@@H]1O` (some centres unmarked) [NB84], the “Full-length Kir7.1 protein product” value in assay [1] is given as “a protein band equivalent to the full-length product was detected; also recorded: partial restoration of the full-length protein product”. For the same molecule, in assay [2] (setting [3]), the “Current amplitude rescue in a subpopulation of cells” value was “no rescue in current amplitude” and the “Membrane potential rescue in a subpopulation of cells” value is “rescue of membrane potential to control levels”. Further, the “Enhancement of current by Rb+” value in assay [2] (LCA16 iPSC-RPE, 500 μM NB84) amounted to 10 fold. In addition, in assay [2] (LCA16 iPSC-RPE, 500 μM NB84, high external Rb+, −150 mV, n=8), the “Current amplitude upon introduction of Rb+” value was −1562.7±546.7 pA. In assay [2] (LCA16 iPSC-RPE, 500 μM NB84, inward current at −150 mV, n=8), the “Kir7.1 current amplitude, normal external K+” value is −94.3±24 pA. In assay [2] (LCA16 iPSC-RPE, NB84-treated cells, n=10), this molecule displayed a Membrane potential of −56.3±3.6 mV. Besides, in assay [2] (LCA16 iPSC-RPE, bar graph comparison FIG. 7D), the “Resting membrane potential versus control level” value is “recovery of LCA16 iPSC-RPE to control level”.
